Measured values as given in publication PMC10987496, “Activity-stability trade-off observed in variants at position 315 of the GH10 xylanase XynR” (Scientific Reports, 2024).

Target: T1, XynR (WT) (Halalkalibacterium halodurans, UniProt P07528)
T1 construct: gene xynA; pET-21b(+)-XynR expressed in E. coli BL21(DE3), purified on HisTrap (His-tagged); residues 2-359 modelled in 2 chains; catalytic E150/E256
Test: X-ray crystallography, […] A (co-crystallisation and soaking)
Assay type: binding
Conditions: 0.35 M xylobiose, Tris-HCl pH 8.0 mixed with reservoir pH 4.6 (0.02 M CaCl2, acetate, MPD), 20 °C; active site, subsites +1 and +2

T1 sequence (P07528 46-396): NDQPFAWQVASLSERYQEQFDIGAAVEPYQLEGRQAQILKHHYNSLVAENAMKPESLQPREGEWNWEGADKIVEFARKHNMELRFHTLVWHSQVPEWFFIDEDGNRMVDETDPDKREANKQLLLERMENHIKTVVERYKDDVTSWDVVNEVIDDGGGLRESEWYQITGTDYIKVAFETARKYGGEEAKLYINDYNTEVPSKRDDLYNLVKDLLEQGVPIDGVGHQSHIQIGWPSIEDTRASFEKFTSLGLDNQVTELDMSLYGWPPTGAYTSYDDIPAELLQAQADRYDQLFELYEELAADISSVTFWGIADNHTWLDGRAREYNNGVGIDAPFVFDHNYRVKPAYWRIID

OC1OC[C@@H](O[C@@H]2OC[C@@H](O)[C@H](O)[C@H]2O)[C@H](O)[C@H]1O (stereo partly shown) [xylobiose]
X-ray crystallography, 1.80 A (co-crystallisation and soaking): we made crystallographic analysis of WT complexed with xylobiose
